Columns and labels:
KRAS G12V mutant = KRAS G12V mutant (Homo sapiens, UniProt P01116, G12V); assay: GDP-GTP exchange assay, KRAS G12V; type: biochemical; conditions: bodipy loaded KRAS G12V 2.5 nM; 3 hours incubation after adding GppNHp-SOS1 mixture; read-out: G12V_exchange
KRAS G12D = KRAS G12D (Homo sapiens, UniProt P01116, G12D); assay: GDP-GTP exchange assay, KRAS G12D; type: biochemical; conditions: bodipy-loaded KRAS G12D 2.5 nM, GppNHp 500 uM, SOS1 150 nM; 4 hours pre-incubation, 2 hours incubation; read-out: G12D_exchange
Chain of KRAS G12D (P01116 1-188 isoform P01116-2 G12D): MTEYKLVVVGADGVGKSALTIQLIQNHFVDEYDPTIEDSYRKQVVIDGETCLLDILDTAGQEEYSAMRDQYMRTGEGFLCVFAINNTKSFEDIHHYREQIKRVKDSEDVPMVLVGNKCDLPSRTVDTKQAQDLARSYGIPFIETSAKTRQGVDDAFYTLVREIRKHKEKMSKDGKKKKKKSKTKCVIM
Experimental: Inhibitors were serially diluted in DMSO and a volume of 0.1 μL was transferred to the wells of a black low volume 384-well plate. […] The exchange was initiated by the addition of a 5 μL/well volume containing 1 mM GppNHp and 300 nM SOS1 in assay buffer. […] The reaction plates were incubated at ambient temperature for 2 hours, a time estimated for complete GDP-GTP exchange in the absence of inhibitor.
Either GraphPad prism or Genedata Screener SmartFit was used to analyze the data. The IC50 values were derived by fitting the data to a four parameter logistic equation producing a sigmoidal dose-response curve with a variable Hill coefficient.
“NA” indicates IC50 not available.

Caco-2 cells = assay: Caco2 assay (permeability, A-B); type: in vitro ADME; conditions: Papp absorptive direction (A-B), test compound 50 μM, 120 minutes at 37° C.
Experimental: Caco-2 cells are grown at 37° C. in an atmosphere of 5% CO2 in DMEM growth medium supplemented with 10% (v/v) fetal bovine serum, 1% (v/v) nonessential amino acids, penicillin (100 U/mL), and streptomycin (100 μg/mL). Confluent cell monolayers are subcultured every 7 days or 4 days for Caco-2 by treatment with 0.05% trypsin containing […]. Caco-2 cells are seeded in 96-well Transwell plates. The seeding density for Caco-2 cells is 14,000 cells/well. DMEM growth medium is replaced every other day after seeding. Cell monolayers are used for transport assays between 22 and 25 days for Caco-2 cells.
Cell culture medium is removed and replaced with HBSS. To measure the TEER, the HBSS is added into the donor compartment (apical side) and receiver compartment (basolateral side). The TEER is measured by using a REMS Autosampler to ensure the integrity of the cell monolayers. Caco-2 cell monolayers with TEER values ≥300 Ω·cm^2 are used for transport experiments. To determine the Papp in the absorptive direction (A-B), solution of test compound (50 μM) in HBSS is added to the donor compartment (apical side), while HBSS solution with 4% BSA is added to the receiver compartment (basolateral side). The apical volume was 0.075 mL, and the basolateral volume is 0.25 mL. The incubation period is 120 minutes at 37° C. in an atmosphere of 5% CO2. At the end of the incubation period, samples from the donor and receiver sides are removed and an equal volume of acetonitrile is added for protein precipitation. The supernatants are collected after centrifugation (3000 rpm, Allegra X-14R Centrifuge from Beckman Coulter, Indianapolis, IN) for LCMS analysis. The permeability value is determined according to the equation:
[formula] • where the flux rate (F, mass/time) is calculated from the slope of cumulative amounts of compound of interest on the receiver side, SA is the surface area of the cell membrane, VD is the donor volume, and MD is the initial amount of the solution in the donor chamber.
The symbol “+” indicates a Caco-2 value of […], “++” indicates a Caco-2 value of >0.5 but ≤1; and “+++” indicates a Caco-2 value of >1. “NA” indicates IC50 not available.

Chain of KRAS G12V mutant (P01116 1-188 isoform P01116-2 G12V): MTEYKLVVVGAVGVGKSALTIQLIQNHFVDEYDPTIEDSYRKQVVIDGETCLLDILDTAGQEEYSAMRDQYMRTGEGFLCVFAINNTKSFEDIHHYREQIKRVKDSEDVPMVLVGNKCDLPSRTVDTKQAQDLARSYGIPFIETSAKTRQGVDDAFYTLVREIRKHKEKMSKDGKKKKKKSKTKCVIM

| SMILES | IC50 (KRAS G12V mutant) | IC50 (KRAS G12D) | Caco-2 (Caco-2 cells; Table 4) | Caco-2 (Caco-2 cells; Table 3) |
| --- | --- | --- | --- | --- |
| CC(O)c1nc2c(F)c(-c3cccc(Cl)c3Cl)c(CCC#N)cc2c2c1cc([C@@H](C)NC(=O)C1(C)CC1)n2[C@H]1[C@H]2CN[C@@H]1C2 (stereo partly drawn) [Example 61, N-((1R)-1-(1-((1R,4R,5S)-2-Azabicyclo[2.1.1]hexan-5-yl)-8-(2-cyanoethyl)-7-(2,3-dichlorophenyl)-6-fluoro-4-(1-hydroxyethyl)-1H-pyrrolo[3,2-c]quinolin-2-yl)ethyl)-1-methylcyclopropane-1-carboxamide] | < 100 nM | < 100 nM | ++ (a Caco-2 value of >0.5 but ≤1) | – |
| C[C@H](Oc1nc2c(F)c(-c3cccc4cc(F)c(F)cc34)c(CCC#N)cc2c2c1cc(CCC(=O)N1CCC1)n2[C@H]1[C@H]2CN[C@@H]1C2)[C@@H]1CCCN1C (single isomer, unassigned) [Example 21] | < 100 nM | < 100 nM | – | + (a Caco-2 value of 50.5) |
| COC(=O)N1[C@H](C)CC[C@@H]1c1cc2c(-c3ccc(C(C)(C)O)nc3)nc3c(F)c(-c4cccc(Cl)c4Cl)c(CCC#N)cc3c2n1[C@H]1[C@H]2CN[C@@H]1C2 [Example 52, Methyl (2R,5R)-2-(1-((1R,4R,5S)-2-azabicyclo[2.1.1]hexan-5-yl)-8-(2-cyanoethyl)-7-(2,3-dichlorophenyl)-6-fluoro-4-(6-(2-hydroxypropan-2-yl)pyridin-3-yl)-1H-pyrrolo[3,2-c]quinolin-2-yl)-5-methylpyrrolidine-1-carboxylate] | < 100 nM | < 100 nM | +++ (a Caco-2 value of >1) | – |
| Cc1nc2c(F)c(-c3cccc4ccc(F)cc34)c(CCC#N)cc2c2c1cc(CN1CCN(C)CC1=O)n2[C@H]1[C@H]2CN[C@@H]1C2 [Example 15, 3-(1-((1R,4R,5S)-2-Azabicyclo[2.1.1]hexan-5-yl)-6-fluoro-7-(7-fluoronaphthalen-1-yl)-4-methyl-2-((4-methyl-2-oxopiperazin-1-yl)methyl)-1H-pyrrolo[3,2-c]quinolin-8-yl)propanenitrile] | 100 to 1000 nM | < 100 nM | – | ++ (a Caco-2 value of >0.5 but ≤1) |
| N#CCCc1cc2c(ncc3cc([C@H]4CCCN4C(=O)N4CC(F)(F)C4)n([C@H]4[C@H]5CN[C@@H]4C5)c32)c(F)c1-c1cccc(Cl)c1Cl [Example 43, 3-(1-((1R,4R,5S)-2-Azabicyclo[2.1.1]hexan-5-yl)-7-(2,3-dichlorophenyl)-2-((R)-1-(3,3-difluoroazetidine-1-carbonyl)pyrrolidin-2-yl)-6-fluoro-1H-pyrrolo[3,2-c]quinolin-8-yl)propanenitrile] | < 100 nM | < 100 nM | +++ (a Caco-2 value of >1) | – |
| Cc1nc2c(F)c(-c3cccc(Cl)c3Cl)c(CCC#N)cc2c2c1cc([C@H]1C[C@H]3C[C@H]3N1C(=O)C1CC1)n2[C@H]1[C@H]2CN[C@@H]1C2 [Example 49, 3-(1-((1R,4R,5S)-2-Azabicyclo[2.1.1]hexan-5-yl)-2-((1R,3R,5R)-2-(cyclopropanecarbonyl)-2-azabicyclo[3.1.0]hexan-3-yl)-7-(2,3-dichlorophenyl)-6-fluoro-4-methyl-1H-pyrrolo[3,2-c]quinolin-8-yl)propanenitrile] | < 100 nM | < 100 nM | +++ (a Caco-2 value of >1) | – |
| Cc1cc2c(-c3c(CCC#N)cc4c(nc(O[C@@H](C)[C@@H]5CCCN5C)c5cc(C)n([C@H]6[C@H]7CN[C@@H]6C7)c54)c3F)c[nH]c2cc1F [Example 3, 3-(1-((1R,4R,5S)-2-Azabicyclo[2.1.1]hexan-5-yl)-6-fluoro-7-(6-fluoro-5-methyl-1H-indol-3-yl)-2-methyl-4-((S)-1-((S)-1-methylpyrrolidin-2-yl)ethoxy)-1H-pyrrolo[3,2-c]quinolin-8-yl)propanenitrile] | < 100 nM | < 100 nM | – | + (a Caco-2 value of 50.5) |
| Cc1cc2c(O[C@@H](C)[C@@H]3CCCN3C)nc3c(F)c(-c4cc(O)cc(Cl)c4Cl)c(CCC#N)cc3c2n1[C@H]1[C@H]2CN[C@@H]1C2 (single isomer, unassigned) [Example 12] | < 100 nM | < 100 nM | – | + (a Caco-2 value of 50.5) |

— patent US12378243B2, “Quinoline compounds as inhibitors of KRAS” (Incyte Corporation, priority 2021, dated 2025)
